# Residues, ends and D or L forms follow the SMILES beside them.
# Target: T1, Orexin/Hypocretin receptor type 1 (Homo sapiens, UniProt O43613)
# T1 sequence (O43613 whole entry): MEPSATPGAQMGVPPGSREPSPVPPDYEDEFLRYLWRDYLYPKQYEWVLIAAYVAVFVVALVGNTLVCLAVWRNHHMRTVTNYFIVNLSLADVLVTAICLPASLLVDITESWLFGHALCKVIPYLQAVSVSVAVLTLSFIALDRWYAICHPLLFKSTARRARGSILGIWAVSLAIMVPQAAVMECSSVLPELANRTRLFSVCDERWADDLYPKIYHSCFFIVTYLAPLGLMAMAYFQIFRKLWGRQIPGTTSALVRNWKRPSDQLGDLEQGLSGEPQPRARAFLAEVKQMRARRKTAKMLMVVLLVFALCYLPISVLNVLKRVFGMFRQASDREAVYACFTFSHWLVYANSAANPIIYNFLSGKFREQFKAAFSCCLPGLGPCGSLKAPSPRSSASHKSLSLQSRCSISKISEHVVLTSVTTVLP
# Experiment: Effective agonist concentration to human orexin receptor type 1 determined using the Xlfit program
# Assay type: functional
row,EC50 [µM],SMILES
1,> 1000,CC[C@H](C)[C@H](NC(=O)CNC(=O)[C@H](C)NC(=O)[C@H](C)NC(=O)[C@H](Cc1c[nH]cn1)NC(=O)[C@H](CC(N)=O)NC(=O)CNC(=O)[C@@H](N)CO)C(=O)N[C@@H](CC(C)C)C(=O)N[C@H](C(=O)N[C@@H](CCSC)C(=O)O)[C@@H](C)O (H-SGNHAAGILTM-OH)
2,> 1000,CC(C)C[C@H](NC(=O)CNC(=O)[C@@H]1CCCN1C(=O)[C@@H]1CCCN1C(=O)CNC(=O)[C@H](CO)NC(=O)[C@@H](N)CCCN=C(N)N)C(=O)N[C@@H](CCC(N)=O)C(=O)NCC(=O)N[C@@H](CCCN=C(N)N)C(=O)N[C@@H](CC(C)C)C(=O)N[C@@H](CCC(N)=O)C(=O)N[C@@H](CCCN=C(N)N)C(=O)N[C@@H](CC(C)C)C(=O)N[C@@H](CC(C)C)C(=O)N[C@@H](CCC(N)=O)C(=O)O (H-RSGPPGLQGRLQRLLQ-OH)
3,> 1000,CC[C@H](C)[C@H](NC(=O)CNC(=O)[C@H](C)NC(=O)[C@H](C)NC(=O)[C@H](Cc1cnc[nH]1)NC(=O)[C@@H](N)CC(N)=O)C(=O)N[C@@H](CC(C)C)C(=O)N[C@H](C(=O)N[C@@H](CC(C)C)C(=O)O)[C@@H](C)O (H-NHAAGILTL-OH)

# Target: T2, Orexin receptor type 2 (Homo sapiens, UniProt O43614)
# T2 sequence (O43614 whole entry): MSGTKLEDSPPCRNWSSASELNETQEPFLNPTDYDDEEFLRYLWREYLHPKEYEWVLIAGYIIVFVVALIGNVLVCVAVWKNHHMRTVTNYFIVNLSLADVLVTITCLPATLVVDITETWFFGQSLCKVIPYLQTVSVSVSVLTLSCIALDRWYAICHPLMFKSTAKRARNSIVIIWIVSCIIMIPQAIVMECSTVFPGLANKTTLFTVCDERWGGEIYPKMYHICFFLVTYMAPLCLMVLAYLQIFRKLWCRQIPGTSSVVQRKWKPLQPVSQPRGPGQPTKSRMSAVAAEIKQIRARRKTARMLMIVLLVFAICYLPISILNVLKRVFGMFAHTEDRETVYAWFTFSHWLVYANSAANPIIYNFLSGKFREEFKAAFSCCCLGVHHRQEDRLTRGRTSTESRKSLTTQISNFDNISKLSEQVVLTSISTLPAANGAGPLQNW
# Experiment: Effective agonist concentration to the human Orexin receptor type 2 was determined using the Xlfit program
# Assay type: functional
row,SMILES,EC50 [µM]
1,CC[C@H](C)[C@H](NC(=O)CNC(=O)[C@H](C)NC(=O)[C@H](C)NC(=O)[C@H](Cc1c[nH]cn1)NC(=O)[C@H](CC(N)=O)NC(=O)CN)C(=O)N[C@@H](CC(C)C)C(=O)N[C@H](C(=O)N[C@@H](CC(C)C)C(=O)O)[C@@H](C)O (H-GNHAAGILTL-OH),> 1000
2,CC[C@H](C)[C@H](NC(=O)CNC(=O)[C@H](C)NC(=O)[C@H](C)NC(=O)[C@H](Cc1c[nH]cn1)NC(=O)[C@H](CC(N)=O)NC(=O)CNC(=O)[C@@H](N)CO)C(=O)N[C@@H](CC(C)C)C(=O)N[C@H](C(=O)N[C@@H](CCSC)C(=O)O)[C@@H](C)O (H-SGNHAAGILTM-OH),> 1000
3,CC[C@H](C)[C@H](NC(=O)CNC(=O)[C@H](C)NC(=O)[C@H](C)NC(=O)[C@H](Cc1cnc[nH]1)NC(=O)[C@H](CC(N)=O)NC(=O)CNC(=O)[C@H](CO)NC(=O)[C@H](C)NC(=O)[C@H](CCC(N)=O)NC(=O)[C@H](CC(C)C)NC(=O)[C@H](CC(C)C)NC(=O)[C@H](CCCNC(=N)N)NC(=O)[C@H](CCC(N)=O)NC(=O)[C@H](CC(C)C)NC(=O)[C@H](CCCNC(=N)N)NC(=O)CNC(=O)[C@@H](N)CCC(N)=O)C(=O)N[C@@H](CC(C)C)C(=O)N[C@H](C(=O)N[C@@H](CCSC)C(=O)O)[C@@H](C)O (H-QGRLQRLLQASGNHAAGILTM-OH),1.22
4,CC[C@H](C)[C@H](NC(=O)CNC(=O)[C@H](C)NC(=O)[C@H](C)NC(=O)[C@H](Cc1cnc[nH]1)NC(=O)[C@H](CC(N)=O)NC(=O)CNC(=O)[C@H](CO)NC(=O)[C@H](C)NC(=O)[C@H](CCC(N)=O)NC(=O)[C@H](CC(C)C)NC(=O)[C@@H](N)CC(C)C)C(=O)N[C@@H](CC(C)C)C(=O)N[C@H](C(=O)N[C@@H](CCSC)C(=O)O)[C@@H](C)O (H-LLQASGNHAAGILTM-OH),> 1000

# Other lines, results leading:
row,EC50 [µM],SMILES
1,0.28,CC[C@H](C)[C@H](NC(=O)CNC(=O)[C@H](C)NC(=O)[C@H](C)NC(=O)[C@H](Cc1c[nH]cn1)NC(=O)[C@H](CC(N)=O)NC(=O)CNC(=O)[C@H](CO)NC(=O)[C@H](C)NC(=O)[C@H](CCC(N)=O)NC(=O)[C@H](CC(C)C)NC(=O)[C@H](CC(C)C)NC(=O)[C@H](CCCN=C(N)N)NC(=O)[C@@H]1CCCN1C(=O)[C@H](CC(C)C)NC(=O)[C@H](CCCN=C(N)N)NC(=O)CNC(=O)[C@H](CCC(N)=O)NC(=O)[C@H](CC(C)C)NC(=O)CN)C(=O)N[C@@H](CC(C)C)C(=O)N[C@H](C(=O)N[C@@H](CCSC)C(=O)O)[C@@H](C)O (stereo in doubt; form 1)
2,> 1000,CC(C)C[C@H](NC(=O)CNC(=O)[C@@H]1CCCN1C(=O)[C@@H]1CCCN1C(=O)CNC(=O)[C@H](CO)NC(=O)[C@@H](N)CCCN=C(N)N)C(=O)N[C@@H](CCC(N)=O)C(=O)NCC(=O)N[C@@H](CCCN=C(N)N)C(=O)N[C@@H](CC(C)C)C(=O)N[C@@H](CCC(N)=O)C(=O)N[C@@H](CCCN=C(N)N)C(=O)N[C@@H](CC(C)C)C(=O)N[C@@H](CC(C)C)C(=O)N[C@@H](CCC(N)=O)C(=O)O (H-RSGPPGLQGRLQRLLQ-OH)
3,> 1000,CC[C@H](C)[C@H](NC(=O)CNC(=O)[C@H](C)NC(=O)[C@H](C)NC(=O)[C@H](Cc1cnc[nH]1)NC(=O)[C@@H](N)CC(N)=O)C(=O)N[C@@H](CC(C)C)C(=O)N[C@H](C(=O)N[C@@H](CC(C)C)C(=O)O)[C@@H](C)O (H-NHAAGILTL-OH)
4,0.24,CC[C@H](C)[C@H](NC(=O)CNC(=O)[C@H](C)NC(=O)[C@H](C)NC(=O)[C@H](Cc1cnc[nH]1)NC(=O)[C@H](CC(N)=O)NC(=O)CNC(=O)[C@H](CO)NC(=O)[C@H](C)NC(=O)[C@H](CCC(N)=O)NC(=O)[C@H](CC(C)C)NC(=O)[C@H](CC(C)C)NC(=O)[C@H](CCCNC(=N)N)NC(=O)[C@H](CCC(N)=O)NC(=O)[C@H](CC(C)C)NC(=O)[C@H](CCCNC(=N)N)NC(=O)CNC(=O)[C@H](C)NC(=O)[C@H](CC(C)C)NC(=O)CN)C(=O)N[C@@H](CC(C)C)C(=O)N[C@H](C(=O)N[C@@H](CCSC)C(=O)O)[C@@H](C)O (H-GLAGRLQRLLQASGNHAAGILTM-OH)

# Reference: ChEMBL document CHEMBL1148480, “Structure-activity studies of orexin a and orexin B at the human orexin 1 and orexin 2 receptors led to orexin 2 receptor selective and orexin 1 receptor preferring ligands” (J Med Chem, 2004)
